Experimental data: PMC6366974, “The curcumin analog EF24 is a novel senolytic agent” (Aging (Albany NY), 2019)

How the values were obtained:
[1] = system: WI-38 IR-induced senescent cells (IR-SCs); assay: Cell viability assay (flow cytometry, PI); format: cell-based, human; settings: WI-38, 72 h; for EC50: Homo sapiens
Description: Human WI-38 fibroblasts (WI-38, Cat. No. CCL-75), human IMR-90 fibroblasts (IMR-90, Cat. No. CCL-186), human umbilical vein endothelial cells (HUVEC, Cat. No. CRL-1730), human renal epithelial cells (HREC, Cat. No. PCS-400-012) and human pre-adipocytes (Cat. No. PCS-210-010) were newly purchased from the American Type Culture Collection (ATCC, Manassas, VA, USA). WI-38 and IMR-90 cells were cultured in complete Dulbecco’s modified Eagle medium (DMEM, Cat. No. 12430054, Thermo Fisher Scientific, Waltham, MA, USA) supplemented with 10% heat-inactivated fetal bovine serum (FBS, Cat. No. S11150H, Atlanta Biologicals, Flowery Branch, GA, USA), 100 U/mL penicillin and 100 µg/mL streptomycin (Pen Strep, Cat. No. 15140122, Thermo Fisher Scientific, Waltham, MA, USA) in a humidified incubator at 37°C and 5% CO2. HUVEC were cultured in EGM-2 BulletKit (Cat. No. CC-3162, Lonza, Basel, Switzerland) containing basal medium supplemented with growth factors, cytokines and other supplements according to the manufacturer’s protocol. HREC were cultured in renal epithelial cell basal medium (Cat. No. PCS-400-030, ATCC, Manassas, VA, USA) supplemented with renal epithelial cell growth kit (Cat. No. PCS400040, ATCC, Manassas, VA, USA). Human pre-adipocytes were cultured in fibroblast basal medium (Cat. No. PCS-201-030, ATCC, Manassas, VA, USA) supplemented with fibroblast growth kit-low serum (Cat. No. PCS201041, ATCC, Manassas, VA, USA). EF24 (Cat. No. E8409) and HO-3867 (Cat. No. S7501) were purchased from Sigma-Aldrich (St. Louis, MO, USA) and Selleckchem (Houston, TX, USA), respectively. DIMC (Cat. No. 10009986) and 2-HBA (Cat. No. 11879) were both purchased from Cayman Chemical (Ann Arbor, MI, USA).
Three different methods were used for the induction of SCs, including replicative exhaustion, ionizing radiation and ectopic Ras expression as previously described. Briefly, low-passage WI-38 cells (< 25 passages), IMR-90 cells (< 25 passages), HUVEC (< 10 passages), HREC (< 10 passages) and pre-adipocytes (< 4 passages) were used as NCs or for the induction of senescence. To induce replicative senescence (Rep-SCs), WI-38 and IMR-90 fibroblasts, HUVEC, HREC and pre-adipocytes were subcultured until they stopped to divide and became permanently growth arrested senescence after 38 passages (WI-38), 38 passages (IMR-90), 22 passages (HUVEC), 30 passages (HREC) and 10 passages (pre-adipocytes), respectively. To induce SCs by ionizing radiation (IR-SCs) and ectopic expression of Ras (Ras-SCs), WI-38 NCs were treated as previously described.
(§1) Number of viable cells were quantified using flow cytometry as previously described with slight modifications. Specifically, NCs and SCs were incubated with vehicle (0.1% DMSO) or a test compound at indicated concentrations for 72 h. Following dissociation with 0.25% Trypsin-EDTA (Cat. No. 25200056, Thermo Fisher Scientific, Waltham, MA, USA) at 37°C for 5 min, the cells were harvested in 100 µl pre-cooled phosphate buffered saline (PBS, Cat. No. 20012027, Thermo Fisher Scientific, Waltham, MA, USA) containing 2% FBS and 100 ng/mL propidium iodide (PI, P4170, Sigma-Aldrich, St. Louis, MO, USA) and analyzed using flow cytometry (LSR II, BD Biosciences, San Jose, CA, USA). Percentage of viable cells were determined by counting the number of PI negative cells (viable cells) and then calculated as a ratio of control cells treated with vehicle. In addition, dose-response curves were generated for each compound, and the concentration for 50% of maximal effect (EC50 values) was calculated using GraphPad Prism 6.

[2] = system: IMR-90 fibroblasts IR-SCs; assay: Cell viability assay (flow cytometry, PI); format: cell-based; settings: Homo sapiens, IMR-90, 72 h
HREC IR-SCs = assay: Cell viability assay (flow cytometry, PI); format: cell-based; settings: Homo sapiens, 72 h
pre-adipocytes IR-SCs = assay: Cell viability assay (flow cytometry, PI); format: cell-based; settings: Homo sapiens; Pre-adipocyte, 72 h
WI-38 IR-SCs [3] = assay: Apoptosis analysis (Annexin-V/PI flow cytometry); format: cell-based, human; settings: 2 µM, 72 h
Description: (§2) WI-38 NCs and SCs were treated with vehicle or 10 µM Q-VD-OPh (QVD, Cat. No. S7311, Selleckchem, Houston, TX, USA) for 4 h prior to the addition of vehicle or 2 µM EF24 for 72 h. The suspending cells were first harvested from the culture and then pooled with the adherent cells detached by 0.25% Trypsin-EDTA at 37°C for 5 min in 12 × 75 mm polystyrene round-bottom tubes (Cat. No. 352058, Falcon, Corning, NY, USA) containing complete DMEM medium. The cells were stained with Alexa Fluor 647-Annexin V (1: 50, Cat. No. 640912, BioLegend, San Diego, CA, USA) and PI (10 µg/mL, Cat. No. 421301, BioLegend, San Diego, CA, USA) at room temperature for 30 min. The stained cells were analyzed using a BD LSR II flow cytometer.

WI-38 NCs = assay: Apoptosis analysis (Annexin-V/PI flow cytometry); format: cell-based, human; settings: 2 µM, 72 h
Description: as §2

[4] = system: BCL-XL, MCL-1 and BCL-2 mRNA; assay: qPCR of mRNA levels in WI-38 cells; format: cell-based, human; settings: WI-38 NCs and IR-SCs, 72 h
Description: The mRNA levels were measured with qPCR, as previously described. qPCR was run with TaqMan qPCR (Cat. No. 4444965, Thermo Fisher Scientific, Waltham, MA, USA) reagents and primers (Cat. No. 4331182, Thermo Fisher Scientific, Waltham, MA, USA).

WI-38 IR-SCs [5] = assay: Combination treatment cell viability and coefficient of drug interaction (CDI); format: cell-based, human; settings: 72 h
Description: as §1
The data were analyzed by analysis of variance (ANOVA) with GraphPad Prism 6 (GraphPad Software, La Jolla, CA, USA). […] To detect the synergistic senolytic activities of EF24 and ABT263, CDI was calculated as previously described.

O=C1/C(=C/c2ccccc2F)CNC/C1=C\c1ccccc1F [EF24]
EC50 ([1]; Table 2): 1740 nM | EC50 ([1]; WI-38 IR-SCs, 72 h, Table 1 screen of curcumin analogs): 1620 nM | selective toxicity against IR-SCs versus NCs (viability) [1]: lesser toxicities to NCs | EC50 [2]: 1720 nM | EC50 (HREC IR-SCs): 1150 nM | EC50 (pre-adipocytes IR-SCs): 5040 nM | number of PI positive cells representing necrotic cells in IR-SCs (WI-38 IR-SCs [3]): not any significant changes | number and percentage of Annexin-V positive apoptotic cells in IR-SCs (WI-38 IR-SCs [3]; compared to vehicle): significantly increased | induction of apoptosis in NCs (WI-38 NCs): did not induce apoptosis | BCL-XL, MCL-1 and BCL-2 mRNA levels [4]: did not observe any significant changes | cell viability of IR-SCs, agent alone (WI-38 IR-SCs [5]): dose-dependently reduce
